Patent US6576268B2, “Biologically active fraction of vegetable melanin, process for its production and its use” (priority 1998, dated 2003)

Experiment: SOD-like activity and IC50, chemiluminometric method (PHOTOCHEM, set FAT Berlin)
Format: biochemical
Settings: fytomelanin with 10^19 spin/g
Procedure: To determine the SOD-like activity a chemiluminometric method using the chemiluminometer PHOTOCHEM was used, where the set FAT, Berlin for the SOD activity was used for the determination. The measurements were performed with the measuring time of 3 minutes, and the area integral of the chemiluminiscent curve was recorded. The value was recalculated to the unit SOD activity (by weight), and it represents 0.2 of the SOD activity.

Substance: SOD: superoxide dismutase, molecular weight 32000, reference enzyme
- -log IC50: 8.064
- % SOD activity (relative to SOD = 100): 100.00%
